Experimental data from patent US9770467B2, “Compositions and methods for cancer immunotherapy” (THE JOHNS HOPKINS UNIVERSITY, priority 2012, dated 2017).

Legend:
[1] = system: primary human PBMCs; test: IFN-α levels in primary human PBMCs by Cytometric Bead Array; type: cell-based; settings: 50 μM, Effectene transfection, 24 hours; fifteen donors
Protocol: To determine the levels of IFN-α as a signature of CDN potency to activate innate immunity, 1×10^6 primary human PBMCs isolated from fifteen independent human donors were incubated in a 96 well U bottom plate for 30 min at 37° C., 5% CO2 with 50 μM of c-di-GMP (CDG), 1 μg/mL of Interferon Stimulatory DNA (ISD), or 4 μg/mL of Poly (I:C) utilizing Effectene transfection reagent (Qiagen) to transfer the molecules into the PBMC. ISD (Interferon Stimulating DNA) is TLR independent (Stetston, D. B. et. al. Immunity 24, 93-103, January 2006) and signals through cGAS, and is thus STING-dependent, while Poly (I:C) can signal through both TLR3 and RIG-I pathways, and are thus STING-independent. After 30 minutes, the cells were washed and replaced with RPMI media containing 10% FBS and incubated at 37° C., 5% CO2. After 24 hours incubation IFN-α levels were determined by Cytometric Bead Array (CBA, BD Biosciences) (FIG. 8).

[2] = target: T1, STING (Mus musculus, UniProt Q3TBT3); settings: cited from earlier work
T1 sequence (Q3TBT3 138-378 limits assumed): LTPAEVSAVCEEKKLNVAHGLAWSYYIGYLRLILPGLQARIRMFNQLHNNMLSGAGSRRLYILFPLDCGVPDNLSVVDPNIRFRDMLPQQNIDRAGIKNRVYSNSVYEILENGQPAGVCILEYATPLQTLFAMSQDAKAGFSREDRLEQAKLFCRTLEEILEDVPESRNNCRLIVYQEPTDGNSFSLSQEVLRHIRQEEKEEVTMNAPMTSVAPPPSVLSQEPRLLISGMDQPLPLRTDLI

## Nc1nc2c(ncn2[C@@H]2O[C@@H]3COP(=O)(O)O[C@H]4[C@@H](O)[C@H](n5cnc6c(=O)[nH]c(N)nc65)O[C@@H]4COP(=O)(O)O[C@H]3[C@H]2O)c(=O)[nH]1 [cyclic-di-GMP, cyclic diguanylate monophosphate]
[1]
  activation of innate immunity (IFN-α levels): activates innate immunity
[2]
  binding to STING: binds directly
